Columns and labels:
[1] = Alteration of body weight in the in vivo treatment test; conditions: 3366/Tam-bearing female NMRI nude mice, dose Tam/Lipid mg/kg/injection as per group, twice a day for 4 weeks
Description: (§1) Tam liposomes according to Example 4 are used for the in vivo treatment test. As a tumor model, breast cancer 3366/Tam is transplanted onto female NMRI nude mice and the treatment started when the tumor is palpable. The animals are given one dose of liposomes with 50 mg/kg Tam (and correspondingly 25 mg/kg OPP) twice a day for 4 weeks. As controls, liposomes containing no Tam are administered, in addition one group being treated with free Tam. The tumor growth in relation to the control group (physiological salt solution) is determined and portrayed as a percentage T/C, as shown in FIG. 1 and in Table 1. […] The living cells were determined with the MTT assay.

breast cancer 3366/Tam = experiment: Therapeutic effectivity on tamoxifen-resistant breast cancer xenograft, tumor growth as T/C; assay type: in vivo; conditions: 3366/Tam tumor on female NMRI nude mice; dose Tam/Lipid mg/kg/injection as per group (50/0, 50/25, 0/25), twice a day for 4 weeks
Description: as §1

CC/C(=C(\c1ccccc1)c1ccc(OCCN(C)C)cc1)c1ccccc1 [tamoxifen]
Alteration of body weight % (day 29/51) [1]: −5% | T/C (tumor growth in relation to the control group, physiological salt solution) (breast cancer 3366/Tam): 91%
